These results are taken from patent publication US11096923B2, “Pharmaceutical composition containing polymyxin B/trimethoprim based therapeutics” (University of Rochester, priority 2016, dated 2021).

The subject of experiment [1] is S. aureus UAMS-1. The experiment in a line: Selleck library screen in presence of sub-inhibitory polymyxin B/trimethoprim. It is filed as cell-based, Staphylococcus aureus. Also noted: key: Growth (+); no growth (−). As to conditions: for S. aureus growth, 5 μM: drug 5 μM in presence of 1.2 μg ml^−1 polymyxin B/trimethoprim; for S. aureus growth, 50 μM: drug 50 μM in presence of 1.2 μg ml^−1 polymyxin B/trimethoprim. The method, then:
To identify agents that potentiate the antimicrobial activity of polymyxin B/trimethoprim we first determined the highest concentration of the polymyxin B/trimethoprim combination that allowed growth of P. aeruginosa strain PAO1 and S. aureus strain UAMS-1.
For Selleck library screening, individual wells of 96-well microtiter plates containing 88 μl of fresh media were inoculated with approximately 10^5 CFUs of P. aeruginosa strain PAO1 or S. aureus UAMS-1. Next, 2 μl of polymyxin B/trimethoprim was added to a final concentration of 0.2 μg ml^−1 or 1.25 μg ml^−1 for PA01 and UAMS-1, respectively. Library members were then added at either 5 μM or 50 μM final concentration. Plates were incubated at 37° C. for 16 hours and hits were identified as wells with no visible growth.
To do so, 10^5 CFUs of S. aureus strain UAMS-1 were inoculated in individual wells of a microtiter plate supplemented with 1.2 μg ml^−1 of polymyxin B/trimethoprim, (0.25×MIC). Library members were added at low (5 μM) or high (50 μM) concentrations and then scored for agents that inhibited growth following overnight incubation. Such agents were expected to represent compounds that display antimicrobial activity on their own and/or that potentiate the antimicrobial activity of polymyxin B/trimethoprim.

The test system of experiment [2] is S. aureus strain UAMS-1. The experiment is classed as cell-based, Staphylococcus aureus. To be noted: 1×MIC, laser microbial growth monitor over 40 hours. The method, then: Spontaneous resistance to the indicated test agent(s) was measured for P. aeruginosa strain PA01 and S. aureus strain UAMS-1 using two liquid culture approaches. […] Growth was measured using the BacterioScan s216Dx laser microbial growth monitor, with optical measurements taken every 3 minutes over 40 hours. Following 40 hours, samples were plated for to measure viable colony forming units and re-tested for drug susceptibility.
To determine if these colonies represented untreated cells vs. resistant cells, 8 individual colonies from each treatment condition were randomly selected and tested for MICs.
Using an automated laser microbial growth monitor, the optical profiles of these cultures were measured continuously over time. […] Again 8 colonies were selected at random from each treatment group.

Experiment [3] deals with P. aeruginosa. In words: MIC of clinical P. aeruginosa ocular isolates (antibiotic susceptibility profiles). It is filed as cell-based, Pseudomonas aeruginosa. As to conditions: Pseudomonas aeruginosa, read-out: Minimum Inhibitory Concentration. The text has this:
A series of genotyping and biological assays were used as a preliminary means to evaluate the clonality of clinical P. aeruginosa isolates collected, as follows. Genomic DNA was purified from each isolate using Qiagen DNeasy kits (Hilden, Germany) and used as a template for polymerase chain reactions to detect the presence of the virulence factors exoS, exoY, exoU, exoT, and perV using previously published primers (Table 1). See Allewelt M, Coleman F T, Grout M, Priebe G P, Pier G B. Acquisition of expression of the Pseudomonas aeruginosa ExoU cytotoxin leads to increased bacterial virulence in a murine model of acute pneumonia and systemic spread. Infection and immunity 2000; 68:3998-4004, Lomholt J A, Poulsen K, Kilian M. Epidemic population structure of Pseudomonas aeruginosa: evidence for a clone that is pathogenic to the eye and that has a distinct combination of virulence factors. Infection and immunity 2001; 69, and Ledbetter E C, Mun J J, Kowbel D, Fleiszig S M. Pathogenic phenotype and genotype of Pseudomonas aeruginosa isolates from spontaneous canine ocular infections. Investigative ophthalmology & visual science 2009; 50. […] See Institute C. Performance Standards for Antimicrobial Susceptibility Testing: Twenty-fifth Informational Supplement. Each isolate's ability to form biofilms was quantified. To do so, wells of a polystyrene plate containing 72-hour established biofilms were washed with 0.8% NaCl to remove non adherent cells and stained with crystal violet. To quantify biofilm staining, plates were washed 3 times with H2O, stain was suspended in 30% glacial acetic acid and the optical density (OD600nm) of each well was determined using an automated plate reader, as previously described. See Jacobs A C, Blanchard C E, Catherman S C, Dunman P M, Murata Y. An ribonuclease T2 family protein modulates Acinetobacter baumannii abiotic surface colonization. PloS one 2014; 9.

The subject of experiment [4] is planktonic S. aureus cells. In words: Antimicrobial kill curves. The experiment is classed as cell-based, Staphylococcus aureus. To be noted: 2× MIC. The method, then: Overnight cultures of the indicated organism were used to inoculate (1:100 dilution) 100 ml of fresh media and grown to mid-exponential phase. […] Aliquots were taken at 1, 2, 3, 4, and 24 hours, serial diluted and plated for colony forming units.

Experiment [5] relates to P. aeruginosa biofilm. Also noted: key: Killing (+) of established biofilms. To be noted: established biofilms; adenylate kinase reporter; Blanchard et al., 2016; cited from earlier work.

Read-outs that look alike come from different tables or passages of the source.

Take `CO[C@H]1/C=C/O[C@@]2(C)Oc3c(C)c(O)c4c(O)c(c(/C=N/N5CCN(C)CC5)c(O)c4c3C2=O)NC(=O)/C(C)=C\C=C\[C@H](C)[C@H](O)[C@@H](C)[C@@H](O)[C@@H](C)[C@H](OC(C)=O)[C@@H]1C` [Rifampicin, rifampicin]: in experiment [1], the “S. aureus growth, 5 μM” value is “−” and the “S. aureus growth, 50 μM” value was “−”. In experiment [2], the “start of outgrowth of treated culture” value came to 8 h.
With `NC[C@H]1O[C@H](O[C@H]2[C@H](O)[C@@H](O[C@H]3O[C@H](CO)[C@@H](O)[C@H](N)[C@H]3O)[C@H](N)C[C@@H]2N)[C@H](N)C[C@@H]1O` [Tobramycin, tobramycin], the MIC in experiment [3] (P. aeruginosa ocular isolate RW01 (cornea)) is 0.24 µg/mL; in experiment [3] (P. aeruginosa ocular isolate RW02 (cornea)), 0.24 µg/mL; in experiment [3] (P. aeruginosa ocular isolate RW03 (cornea)) it was 0.24 µg/mL; in experiment [3] (P. aeruginosa ocular isolate RW04 (conjunctiva)) it was 0.48 µg/mL; in experiment [3] (P. aeruginosa ocular isolate RW05 (cornea)), 0.48 µg/mL; in experiment [3] (P. aeruginosa ocular isolate RW06 (cornea)), 0.24 µg/mL. Also, the MIC in experiment [3] (P. aeruginosa ocular isolate RW07 (cornea)) was 0.24 µg/mL. Moreover, the “S. aureus growth, 5 μM” value in experiment [1] is recorded as “+”. Besides, the “S. aureus growth, 50 μM” value in experiment [1] is “−”. The “reduction in CFU at 24 hours” value in experiment [4] was found to be 6 log. Further, the “P. aeruginosa biofilm AK Signal” value in experiment [5] is on record as “+”.
